Experimental findings from patent US20250195530A1, “POLQ INHIBITORS” (ASTRAZENECA AB, priority 2022, published 2025) are described below.

Structures are written as SMILES.

For the first assay, the system named is DLD-1 BRCA2−/− cells. Kind of assay: Homologous recombination synthetic lethal inhibition of proliferation, DLD-1 BRCA2-/- (Cell Titre Glo 3D). To be noted: DLD-1 BRCA2-/- proliferation; column head only partly shown. The class given is cell-based. Summed up:
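Read-out: CellTiter-Glo 3D luminescence, day 7 for wt DLD-1, day 12 for BRCA2−/−, about 8-9 population doublings each. Seeding 1,500 or 3,000 cells/mL respectively. Dose range 10 μM–0.51 nM, 3-fold, 10 points, with re-dosing on day 6. IC50 from curve fit.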
With `CC1(Oc2ncnc3c2nc(-c2cccc(O[C@H]4C[C@H](C(=O)O)C4)c2Cl)n3Cc2cccc(Cl)c2)CC1` [Example T256, (1r,3r)-3-(2-chloro-3-(9-(3-chlorobenzyl)-6-(1-methylcyclopropoxy)-9H-purin-8-yl)phenoxy)cyclobutane-1-carboxylic acid], the “POLQ PD Prolif Lumin” value was 6.9.

Regarding `CC1(Oc2ncnc3c2nc(-c2cccc(O[C@H]4C[C@@H](C(=O)O)C4)c2Cl)n3Cc2cccc(Cl)c2)CC1` [Example T257, (1s,3s)-3-(2-chloro-3-(9-(3-chlorobenzyl)-6-(1-methylcyclopropoxy)-9H-purin-8-yl)phenoxy)cyclobutane-1-carboxylic acid], the “POLQ PD Prolif Lumin” value is 7.

The assay is the same for the next values; noted with them: Homo sapiens, DLD-1, DLD-1 BRCA2-/- proliferation; column head only partly shown; read-out: POLQ PD Prolif Lumin (converted).
For the compound `Cc1ccnc(Cn2c(-c3ccc(C(=O)NC(C)C)cc3Cl)nc3c(OC4(C)CC4)ncnc32)c1` [Example T211, 3-chloro-N-isopropyl-4-(6-(1-methylcyclopropoxy)-9-((4-methylpyridin-2-yl)methyl)-9H-purin-8-yl)benzamide], the IC50 was 501 nM.

Consider `CC(=O)NCCc1ccc(-c2nc3c(OC4(C)CC4)ncnc3n2Cc2cc(C)ccn2)c(Cl)c1` [Example T212, N-(3-chloro-4-(6-(1-methylcyclopropoxy)-9-((4-methylpyridin-2-yl)methyl)-9H-purin-8-yl)phenethyl)acetamide], for which the IC50 was 398 nM.

Turning to `CCNC(=O)Cc1ccc(-c2nc3c(OC4(C)CC4)ncnc3n2Cc2cc(C)ccn2)c(Cl)c1` [Example T213, 2-(3-chloro-4-(6-(1-methylcyclopropoxy)-9-((4-methylpyridin-2-yl)methyl)-9H-purin-8-yl)phenyl)-N-ethylacetamide], the IC50 is 251 nM.

For `CNC(=O)CCc1ccc(-c2nc3c(OC4(C)CC4)ncnc3n2Cc2cc(C)ccn2)c(Cl)c1` [Example T214, 3-(3-chloro-4-(6-(1-methylcyclopropoxy)-9-((4-methylpyridin-2-yl)methyl)-9H-purin-8-yl)phenyl)-N-methylpropanamide], the IC50 was 316 nM.

On to `Cc1ccnc(Cn2c(-c3ccc(OCC(=O)N(C)C)cc3Cl)nc3c(OC4(C)CC4)ncnc32)c1` [Example T216, 2-(3-chloro-4-(6-(1-methylcyclopropoxy)-9-((4-methylpyridin-2-yl)methyl)-9H-purin-8-yl)phenoxy)-N,N-dimethylacetamide], for which the IC50 is 316 nM.

Consider `Cc1ccnc(Cn2c(-c3ccc(C(=O)NCCCO)cc3Cl)nc3c(OC4(C)CC4)ncnc32)c1` [Example T217, 3-chloro-N-(3-hydroxypropyl)-4-(6-(1-methylcyclopropoxy)-9-((4-methylpyridin-2-yl)methyl)-9H-purin-8-yl)benzamide], for which the IC50 was 1000 nM.

As to `Cc1ccnc(Cn2c(-c3ccc(C(=O)NC[C@H](C)O)cc3Cl)nc3c(OC4(C)CC4)ncnc32)c1` [Example T218, (S)-3-chloro-N-(2-hydroxypropyl)-4-(6-(1-methylcyclopropoxy)-9-((4-methylpyridin-2-yl)methyl)-9H-purin-8-yl)benzamide], the IC50 is 631 nM.

Turning to `CC(=O)NCCOc1ccc(-c2nc3c(OC4(C)CC4)ncnc3n2Cc2cc(C)ccn2)c(Cl)c1` [Example T219, N-(2-(3-chloro-4-(6-(1-methylcyclopropoxy)-9-((4-methylpyridin-2-yl)methyl)-9H-purin-8-yl)phenoxy)ethyl)acetamide], the IC50 was 251 nM.

`Cc1ccnc(Cn2c(-c3ccc(C(=O)N(C)CCO)cc3Cl)nc3c(OC4(C)CC4)ncnc32)c1` [Example T220, 3-chloro-N-(2-hydroxyethyl)-N-methyl-4-(6-(1-methylcyclopropoxy)-9-((4-methylpyridin-2-yl)methyl)-9H-purin-8-yl)benzamide]: the IC50 was 3160 nM.

Regarding `CCNC(=O)COc1ccc(-c2nc3c(OC4(C)CC4)ncnc3n2Cc2cc(C)ccn2)c(Cl)c1` [Example T221, 2-(3-chloro-4-(6-(1-methylcyclopropoxy)-9-((4-methylpyridin-2-yl)methyl)-9H-purin-8-yl)phenoxy)-N-ethylacetamide], the IC50 is 316 nM.

Regarding `COC(=O)NCCc1ccc(-c2nc3c(OC4(C)CC4)ncnc3n2Cc2cc(C)ccn2)c(Cl)c1` [Example T222, methyl (3-chloro-4-(6-(1-methylcyclopropoxy)-9-((4-methylpyridin-2-yl)methyl)-9H-purin-8-yl)phenethyl)carbamate], the IC50 was 200 nM.

In the case of `Cc1ccnc(Cn2c(-c3ccc(CCNC(=O)CO)cc3Cl)nc3c(OC4(C)CC4)ncnc32)c1` [Example T223, N-(3-chloro-4-(6-(1-methylcyclopropoxy)-9-((4-methylpyridin-2-yl)methyl)-9H-purin-8-yl)phenethyl)-2-hydroxyacetamide], the IC50 is 501 nM.

For the compound `Cc1ccnc(Cn2c(-c3ccc(CC(=O)NCCO)cc3Cl)nc3c(OC4(C)CC4)ncnc32)c1` [Example T224, 2-(3-chloro-4-(6-(1-methylcyclopropoxy)-9-((4-methylpyridin-2-yl)methyl)-9H-purin-8-yl)phenyl)-N-(2-hydroxyethyl)acetamide], the IC50 was 1000 nM.

Turning to `Cc1ccnc(Cn2c(-c3ccc(OCC(=O)NCCO)cc3Cl)nc3c(OC4(C)CC4)ncnc32)c1` [Example T226, 2-(3-chloro-4-(6-(1-methylcyclopropoxy)-9-((4-methylpyridin-2-yl)methyl)-9H-purin-8-yl)phenoxy)-N-(2-hydroxyethyl)acetamide], the IC50 was 158 nM.

On to `Cc1ccnc(Cn2c(-c3ccc(OCCNC(=O)CO)cc3Cl)nc3c(OC4(C)CC4)ncnc32)c1` [Example T227, N-(2-(3-chloro-4-(6-(1-methylcyclopropoxy)-9-((4-methylpyridin-2-yl)methyl)-9H-purin-8-yl)phenoxy)ethyl)-2-hydroxyacetamide], for which the IC50 is 316 nM.

With `COC(=O)NCCOc1ccc(-c2nc3c(OC4(C)CC4)ncnc3n2Cc2cc(C)ccn2)c(Cl)c1` [Example T228, methyl (2-(3-chloro-4-(6-(1-methylcyclopropoxy)-9-((4-methylpyridin-2-yl)methyl)-9H-purin-8-yl)phenoxy)ethyl)carbamate], the IC50 was 126 nM.

As to `Cc1ccnc(Cn2c(-c3ccc(OCCOCCO)cc3Cl)nc3c(OC4(C)CC4)ncnc32)c1` [Example T233, 2-(2-(3-chloro-4-(6-(1-methylcyclopropoxy)-9-((4-methylpyridin-2-yl)methyl)-9H-purin-8-yl)phenoxy)ethoxy)ethan-1-ol], the IC50 was 158 nM.

Take `Cc1ccnc(Cn2c(-c3ccc(N4CCNCC4)cc3Cl)nc3c(OC4(C)CC4)ncnc32)c1` [Example T235, 8-(2-chloro-4-(piperazin-1-yl)phenyl)-6-(1-methylcyclopropoxy)-9-((4-methylpyridin-2-yl)methyl)-9H-purine]: the IC50 was 398 nM.

Consider `Cc1cnc(Cn2c(-c3ccc(OCCN4CC[C@@H](O)C4)cc3Cl)nc3c(OC4(C)CC4)ncnc32)s1` [Example T245, (R)-1-(2-(3-chloro-4-(6-(1-methylcyclopropoxy)-9-((5-methylthiazol-2-yl)methyl)-9H-purin-8-yl)phenoxy)ethyl)pyrrolidin-3-ol], for which the IC50 is 631 nM.

For `Cc1ccnc(Cn2c(-c3ccc(NCCN(C)C)cc3Cl)nc3c(OC4(C)CC4)ncnc32)c1` [Example T247, N1-(3-chloro-4-(6-(1-methylcyclopropoxy)-9-((4-methylpyridin-2-yl)methyl)-9H-purin-8-yl)phenyl)-N2,N2-dimethylethane-1,2-diamine], the IC50 was 501 nM.

On to `C/C(=C\COc1ccc(-c2nc3c(OC4(C)CC4)ncnc3n2Cc2cccc(Cl)c2)c(Cl)c1)C(=O)O` [Example T255, (E)-4-(3-chloro-4-(9-(3-chlorobenzyl)-6-(1-methylcyclopropoxy)-9H-purin-8-yl)phenoxy)-2-methylbut-2-enoic acid], for which the IC50 was 316 nM.

On to `C#CCNC(=O)COc1ccc(-c2nc3c(OC4(C)CC4)ncnc3n2Cc2cc(C)ccn2)c(Cl)c1` [Example T266, 2-(3-chloro-4-(6-(1-methylcyclopropoxy)-9-((4-methylpyridin-2-yl)methyl)-9H-purin-8-yl)phenoxy)-N-(prop-2-yn-1-yl)acetamide], for which the IC50 was 158 nM.

For the compound `Cc1ccnc(Cn2c(-c3ccc(C(=O)NC4CC(F)C4)cc3Cl)nc3c(OC4(C)CC4)ncnc32)c1` (centres unmarked) [Example T280, 3-chloro-N-(3-fluorocyclobutyl)-4-(6-(1-methylcyclopropoxy)-9-((4-methylpyridin-2-yl)methyl)-9H-purin-8-yl)benzamide], the IC50 is 794 nM.

In the case of `Cc1ccnc(Cn2c(-c3ccc(C(=O)N4CC[C@H](F)C4)cc3Cl)nc3c(OC4(C)CC4)ncnc32)c1` [Example T281, (S)-(3-chloro-4-(6-(1-methylcyclopropoxy)-9-((4-methylpyridin-2-yl)methyl)-9H-purin-8-yl)phenyl)(3-fluoropyrrolidin-1-yl)methanone], the IC50 was 794 nM.

Consider `Cc1ccnc(Cn2c(-c3ccc(C(=O)N4C[C@@H](O)[C@H](F)C4)cc3Cl)nc3c(OC4(C)CC4)ncnc32)c1` [Example T282, (3-chloro-4-(6-(1-methylcyclopropoxy)-9-((4-methylpyridin-2-yl)methyl)-9H-purin-8-yl)phenyl)((3R,4R)-3-fluoro-4-hydroxypyrrolidin-1-yl)methanone], for which the IC50 was 2510 nM.

`Cc1ccnc(Cn2c(-c3ccc(OCC(=O)N4CC(F)C4)cc3Cl)nc3c(OC4(C)CC4)ncnc32)c1` [Example T283, 2-(3-chloro-4-(6-(1-methylcyclopropoxy)-9-((4-methylpyridin-2-yl)methyl)-9H-purin-8-yl)phenoxy)-1-(3-fluoroazetidin-1-yl)ethan-1-one]: the IC50 is 158 nM.

On to `Cc1ccnc(Cn2c(-c3ccc(C(=O)N(C)CCC#N)cc3Cl)nc3c(OC4(C)CC4)ncnc32)c1` [Example T286, 3-chloro-N-(2-cyanoethyl)-N-methyl-4-(6-(1-methylcyclopropoxy)-9-((4-methylpyridin-2-yl)methyl)-9H-purin-8-yl)benzamide], for which the IC50 was 1260 nM.
